These results are taken from US20250122182A1 (Isosterix, Inc., priority 2023, published 2025).

For this assay, the target named is Recombinant KAT6A/MOZ (488-778) protein (Homo sapiens (Human), UniProt Q92794). As to the kind of experiment: KAT6A AlphaLISA Inhibition Screening Assay. Particulars: for inhibition at 1 µM: read-out: Average Kat6A % inhibition @ 1 μM; for inhibition at 1 µM / Average Kat6A % inhibition @ 1 μM: 1 μM test compound; for inhibition at 10 µM: read-out: Average Kat6A % inhibition @ 10 μM; for inhibition at 10 µM / Average Kat6A % inhibition @ 10 μM: 10 μM test compound. It counts as biochemical. The method, then:
The Kat6a inhibitory activity of test compounds was determined using an Alpha Screen-based detection method. The assay reactions were conducted in a volume of 10 μL in Alpha Plate, White 384 well plate (cat #6008280, Perkin Elmer). The enzymatic reactions were performed in assay buffer pH 8.0 (50 mM Tris-HCl, 0.1 mM EDTA, 0.01% Tween-20, 1 mM Dithiothreitol, 0.1% BSA (fatty acid free) and 330 nM TSA (Trichostatin A)). 10 μL reaction volume consisting of 25 nM of Recombinant KAT6A/MOZ (488-778) protein (Active motif, Catalog #81223), 400 nM Acetyl coenzyme A (Catalog #A2056, Sigma), 200 nM of Histone H3 peptide [(amino acids 1-21), biotin-labeled (BPS Biosciences, Catalog #52011)]. Test compounds were screened at different doses starting with 10 μM, 3 fold dilution and 10 point Dose response curve. Enzyme and compounds solution were pre-incubated in assay plate for 60 or 10 min at room temperature then substrate and Acetyl coenzyme A solution were added to the plate. After addition, the plate was sealed with adhesive seals and incubated for 120 minutes at room temperature.
After 120 minutes of incubation, […] of AlphaLISA anti-acetyl-Lysine acceptor beads (Perkin Elmer, Catalog #AL143C) were added to the plate and it was incubated for 60 minutes at room temperature. Then […] of Alpha Streptavidin donor beads (Perkin Elmer, Catalog #6760002S) were added to the plate which was further incubated for 60 minutes at room temperature. After incubation, the alpha signal was recorded by using Perkin Elmer Envision multi-mode reader. Percent inhibition of enzyme activity by test compounds were determined relative to vehicle control.
Background: Bead proximity is the source of the signal in Alpha formats.

Molecules are shown by their SMILES.

Chain of Recombinant KAT6A/MOZ (488-778) protein (Q92794 488-778): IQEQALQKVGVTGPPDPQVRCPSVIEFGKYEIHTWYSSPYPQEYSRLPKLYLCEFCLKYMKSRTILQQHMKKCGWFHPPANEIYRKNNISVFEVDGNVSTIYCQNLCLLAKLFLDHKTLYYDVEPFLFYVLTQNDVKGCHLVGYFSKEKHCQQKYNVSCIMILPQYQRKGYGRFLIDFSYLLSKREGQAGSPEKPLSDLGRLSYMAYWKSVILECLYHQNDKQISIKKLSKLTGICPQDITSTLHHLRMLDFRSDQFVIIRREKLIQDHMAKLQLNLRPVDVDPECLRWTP

By inhibition is commonly meant the change of the read-out against control, counted positive when it falls. As for `COc1cc(C)c(C)cc1S(=O)(=O)Nc1noc2cc(Cn3cc(CNS(C)(=O)=O)cn3)cc(OC)c12` [Syn. Ex. 20, 2-methoxy-N-(4-methoxy-6-((4-(methylsulfonamidomethyl)-1H-pyrazol-1-yl)methyl)benzo[d]isoxazol-3-yl)-4,5-dimethylbenzenesulfonamide], the inhibition at 1 µM was determined as 100% and the inhibition at 10 µM is 100%.
For `C#CC(=O)N1Cc2cnn(Cc3cc(OC)c4c(NS(=O)(=O)c5cc(Cl)ccc5OC)noc4c3)c2C1` [Syn. Ex. 1, 5-chloro-2-methoxy-N-(4-methoxy-6-((5-propioloyl-5,6-dihydropyrrolo[3,4-c]pyrazol-1(4H)-yl)methyl)benzo[d]isoxazol-3-yl)benzenesulfonamide], the inhibition at 1 µM is 100% and the inhibition at 10 µM came to 100%.
Consider `C=CC(=O)NCc1cnn(Cc2cc(OC)c3c(NS(=O)(=O)c4cc(CC)ccc4OC)noc3c2)c1` [Syn. Ex. 42, N-((1-((3-((5-ethyl-2-methoxyphenyl)sulfonamido)-4-methoxybenzo[d]isoxazol-6-yl)methyl)-1H-pyrazol-4-yl)methyl) acrylamide], for which the inhibition at 1 µM amounted to 93% and the inhibition at 10 µM was found to be 100%.
Take `C=C(F)C(=O)NCc1cnn(Cc2cc(OC)c3c(NS(=O)(=O)c4cc(CC)ccc4OCC(=O)N4CCOCC4)noc3c2)c1` [Syn. Ex. 68, N-((1-((3-((5-ethyl-2-(2-morpholino-2-oxoethoxy)phenyl)sulfonamido)-4-methoxybenzo[d]isoxazol-6-yl)methyl)-1H-pyrazol-4-yl)methyl)-2-fluoroacrylamide]: the inhibition at 1 µM turned out to be 96% and the inhibition at 10 µM stood at 100%.
For `CCc1ccc(OCCC#N)c(S(=O)(=O)Nc2noc3cc(Cn4cc(CNC(=O)OC)cn4)cc(OC)c23)c1` [Syn. Ex. 83, methyl ((1-((3-((2-(2-cyanoethoxy)-5-ethylphenyl)sulfonamido)-4-methoxybenzo[d]isoxazol-6-yl)methyl)-1H-pyrazol-4-yl)methyl)carbamate], in that order: 98% and 99%.
Turning to `CCc1ccc(OC)c(S(=O)(=O)Nc2noc3cc(Oc4ncc(CNC(=O)OC)s4)c(OC)cc23)c1` [Syn. Ex. 149, methyl —{N}—[[2-[[3-[(5-ethyl-2-methoxy-phenyl)sulfonylamino]-5-methoxy-1,2-benzoxazol-6-yl]oxy]thiazol-5-yl]methyl]carbamate], the “Average Kat6A % inhibition @ 1 μM” value worked out at 101% and the “Average Kat6A % inhibition @ 10 μM” value is on record as 102%.
Consider `C=C(F)C(=O)NCc1cnn(Cc2cc(OC)c3c(NS(=O)(=O)c4cc(CC)ccc4OCc4cnn[nH]4)noc3c2)c1` [Syn. Ex. 114, N-((1-((3-((2-((1H-1,2,3-triazol-5-yl)methoxy)-5-ethylphenyl)sulfonamido)-4-methoxybenzo[d]isoxazol-6-yl)methyl)-1H-pyrazol-4-yl)methyl)-2-fluoroacrylamide], for which the inhibition at 1 µM amounted to 100% and the inhibition at 10 µM stood at 100%.
Turning to `CCc1ccc(OC)c(S(=O)(=O)Nc2noc3cc(Cn4cc(CNC(=O)OC)cn4)c(F)c(OC)c23)c1` [Syn. Ex. 141, methyl ((1-((3-((5-ethyl-2-methoxyphenyl)sulfonamido)-5-fluoro-4-methoxybenzo[d]isoxazol-6-yl)methyl)-1H-pyrazol-4-yl)methyl)carbamate], the inhibition at 1 µM was found to be 104% and the inhibition at 10 µM was 91%.
For the molecule `COc1ccccc1S(=O)(=O)Nc1noc2cc(Cn3cc(CNS(C)(=O)=O)cn3)cc(OC)c12` [Syn. Ex. 6, 2-methoxy-N-(4-methoxy-6-((4-(methylsulfonamidomethyl)-1H-pyrazol-1-yl)methyl)benzo[d]isoxazol-3-yl) benzenesulfonamide], the “Average Kat6A % inhibition @ 1 μM” value stood at 99% and the “Average Kat6A % inhibition @ 10 μM” value was 100%.
Consider `CC#CC(=O)NCc1ccc(Oc2cc(OC)c3c(NS(=O)(=O)c4cc(CC)ccc4OC)noc3c2)nc1` [Syn. Ex. 57, N-((6-((3-((5-ethyl-2-methoxyphenyl)sulfonamido)-4-methoxybenzo[d]isoxazol-6-yl)oxy)pyridin-3-yl)methyl)but-2-ynamide], for which the inhibition at 1 µM stood at 70% and the inhibition at 10 µM amounted to 100%.
For `C=C(F)C(=O)NCc1cnn(Cc2cc(OC)c3c(NS(=O)(=O)c4cc(CC)ccc4OCC#N)noc3c2)c1` [Syn. Ex. 43, N-((1-((3-((2-(cyanomethoxy)-5-ethylphenyl)sulfonamido)-4-methoxybenzo[d]isoxazol-6-yl)methyl)-1H-pyrazol-4-yl)methyl)-2-fluoroacrylamide], in that order: 96% and 98%.
For `CCc1ccc(OCc2ccccc2)c(S(=O)(=O)Nc2noc3cc(Cn4cc(CNC(=O)OC)cn4)cc(OC)c23)c1` [Syn. Ex. 93, methyl ((1-((3-((2-(benzyloxy)-5-ethylphenyl)sulfonamido)-4-methoxybenzo[d]isoxazol-6-yl)methyl)-1H-pyrazol-4-yl)methyl)carbamate], in that order: 90% and 98%.
On to `CCc1ccc(S(=O)(=O)Nc2noc3cc(Cn4cc(CNC(=O)OC)cn4)c4c(c23)OCCC4)c(OC)c1` [Syn. Ex. 140, methyl ((1-((9-((4-ethyl-2-methoxyphenyl)sulfonamido)-3,4-dihydro-2H-chromeno[8,7-d]isoxazol-5-yl)methyl)-1H-pyrazol-4-yl)methyl)carbamate], for which the inhibition at 1 µM turned out to be 106% and the inhibition at 10 µM was found to be 104%.
For `CCc1ccc(OC)c(S(=O)(=O)Nc2noc3cc(Cn4cc(CNC(=O)[C@@H](C)F)cn4)cc(OC)c23)c1` (single isomer, unassigned) [Syn. Ex. 47a], in that order: 100% and 100%.
`CCc1ccc(OC)c(S(=O)(=O)Nc2noc3cc(Cn4cc(CNC(=O)OCCN)cn4)cc(OC)c23)c1` [Syn. Ex. 32, 2-aminoethyl ((1-((3-((5-ethyl-2-methoxyphenyl)sulfonamido)-4-methoxybenzo[d]isoxazol-6-yl)methyl)-1H-pyrazol-4-yl)methyl) carbamate]: the “Average Kat6A % inhibition @ 1 μM” value was 75% and the “Average Kat6A % inhibition @ 10 μM” value is reported as 97%.
As for `CCc1ccc(S(=O)(=O)Nc2noc3cc(Cn4cc(CNC(=O)OC)cn4)cc(OC)c23)c(OC)c1` [Syn. Ex. 125, methyl ((1-((3-((4-ethyl-2-methoxyphenyl)sulfonamido)-4-methoxybenzo[d]isoxazol-6-yl)methyl)-1H-pyrazol-4-yl)methyl)carbamate], the inhibition at 1 µM stood at 100% and the inhibition at 10 µM is 101%.
For `C=C(F)C(=O)NCc1csc(Oc2cc(OC)c3c(NS(=O)(=O)c4cc(CC)ccc4OC)noc3c2)n1` [Syn. Ex. 105, N-((2-((3-((5-ethyl-2-methoxyphenyl)sulfonamido)-4-methoxybenzo[d]isoxazol-6-yl)oxy)thiazol-4-yl)methyl)-2-fluoroacrylamide], in that order: 68% and 99%.
For `C=C(F)C(=O)NCc1cnn(Cc2cc(OC)c3c(NS(=O)(=O)c4cc(C(C)C)ccc4OC)noc3c2)c1` [Syn. Ex. 59, 2-fluoro-N-((1-((3-((5-isopropyl-2-methoxyphenyl)sulfonamido)-4-methoxybenzo[d]isoxazol-6-yl)methyl)-1H-pyrazol-4-yl)methyl)acrylamide], in that order: 100% and 100%.
`COC(=O)NCc1cnn(Cc2cc(OC)c3c(NS(=O)(=O)c4cccc5cc(C)cnc45)noc3c2)c1` [Syn. Ex. 129, methyl ((1-((4-methoxy-3-((3-methylquinoline)-8-sulfonamido)benzo[d]isoxazol-6-yl)methyl)-1H-pyrazol-4-yl)methyl)carbamate]: the “Average Kat6A % inhibition @ 1 μM” value was 102% and the “Average Kat6A % inhibition @ 10 μM” value is recorded as 102%.
Turning to `C=C(F)C(=O)NCc1cnn(Cc2cc(OC)c3c(NS(=O)(=O)c4cc(CC)ccc4OCCN4CCOC4=O)noc3c2)c1` [Syn. Ex. 78, N-((1-((3-((5-ethyl-2-(2-(2-oxooxazolidin-3-yl)ethoxy)phenyl)sulfonamido)-4-methoxybenzo[d]isoxazol-6-yl)methyl)-1H-pyrazol-4-yl)methyl)-2-fluoroacrylamide], the inhibition at 1 µM turned out to be 100% and the inhibition at 10 µM came out at 100%.
Regarding `C#CC(=O)NCc1cnn(Cc2cc(OC)c3c(NS(=O)(=O)c4c(OC)ccnc4OC)noc3c2)c1` [Syn. Ex. 85, N-((1-((3-((2,4-dimethoxypyridine)-3-sulfonamido)-4-methoxybenzo[d]isoxazol-6-yl)methyl)-1H-pyrazol-4-yl)methyl)propiolamide], the “Average Kat6A % inhibition @ 1 μM” value is 91% and the “Average Kat6A % inhibition @ 10 μM” value stood at 95%.
In the case of `C#Cc1ccc(OC)c(S(=O)(=O)Nc2noc3cc(Cn4cc(CNC(=O)OC)cn4)cc(OC)c23)c1` [Syn. Ex. 112, methyl ((1-((3-((5-ethynyl-2-methoxyphenyl)sulfonamido)-4-methoxybenzo[d]isoxazol-6-yl)methyl)-1H-pyrazol-4-yl)methyl)carbamate], the inhibition at 1 µM came out at 70% and the inhibition at 10 µM amounted to 98%.
